Columns and labels:
standard human plasma = assay: Activated partial thromboplastin time (APTT) in standard human plasma; type: biochemical; settings: concentration required for doubling the coagulation time vs vehicle (1% DMSO)
Protocol: Activated partial thromboplastin time (APTT) and prothrombin time (PT) were measured by using a fully automatic device for measuring blood coagulation (CA-1500, Sysmex Corporation). On APTT or PT measurement, standard human plasma for the blood coagulation tests (Siemens Healthcare Diagnostics GmbH) was mixed with a diluted solution of the compound of the present invention, and thereafter, APTT reagent (Siemens Healthcare Diagnostics GmbH) and 0.02 M of calcium chloride or PT reagent (Siemens Healthcare Diagnostics GmbH) were automatically added to the mixture in order to initiate clot formation. The anticoagulation activity (APTT×2 or PT×2) of the compound of the present invention was expressed as a concentration required for doubling the coagulation time in the vehicle (1% DMSO) group. APTT×2 or PT×2 was determined by plotting the concentration of the compound of the present invention against a twofold increase in the coagulation time.

[1] = biological target: T1, human blood coagulation factor XIa (Homo sapiens, UniProt P03951); assay: Inhibitory activity on human blood coagulation factor XIa (chromogenic substrate S-2366); type: biochemical; settings: chromogenic substrate S-2366, 37° C.; read-out: FXIa inhibitory activity IC50
T1 construct: human blood coagulation factor XIa (Haematologic Technologies Inc.); purchased Haematologic Technologies Inc
T1 sequence (P03951 388-625 limits assumed): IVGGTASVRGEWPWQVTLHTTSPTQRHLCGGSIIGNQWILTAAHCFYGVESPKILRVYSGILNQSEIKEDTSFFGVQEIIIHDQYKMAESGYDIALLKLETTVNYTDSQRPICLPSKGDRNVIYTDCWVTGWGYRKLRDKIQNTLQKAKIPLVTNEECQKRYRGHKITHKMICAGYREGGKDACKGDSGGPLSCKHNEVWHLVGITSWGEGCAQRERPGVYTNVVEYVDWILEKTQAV
T1 sequence (P03951 19-387 partner limits assumed): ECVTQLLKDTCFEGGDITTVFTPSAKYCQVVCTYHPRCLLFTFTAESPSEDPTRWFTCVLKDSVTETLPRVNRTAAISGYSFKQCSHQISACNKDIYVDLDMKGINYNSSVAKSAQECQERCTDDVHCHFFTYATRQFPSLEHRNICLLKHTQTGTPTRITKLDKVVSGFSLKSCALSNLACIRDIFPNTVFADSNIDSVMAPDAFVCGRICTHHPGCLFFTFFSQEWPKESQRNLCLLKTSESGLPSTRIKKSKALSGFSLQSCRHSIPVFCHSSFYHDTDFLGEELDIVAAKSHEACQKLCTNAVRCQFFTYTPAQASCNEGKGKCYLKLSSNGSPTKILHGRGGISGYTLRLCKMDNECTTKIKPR
Protocol: Inhibitory activities of the compound of the present invention on human blood coagulation factor XIa, factor VIIa, factor IXa, factor Xa, factor XIIa, plasma kallikrein and thrombin were evaluated. A chromogenic substrate solution was added to each of enzyme solutions, the absorbance at 405 nm was measured continuously at 37° C. for 5 minutes at intervals of 15 seconds, and the decomposition rate of each of substrates (mOD/min) was calculated. The half maximal (50%) inhibitory concentration (IC50) of the compound of the present invention on each of the enzymes was calculated by linear regression by using least-squares method from the concentration of the compound of the present invention which was converted in terms of natural logarithm and the rate of enzyme inhibition calculated according to the following equation.
The rate of enzyme inhibition (%) of the compound of the present invention was calculated by using the following equation: Rate of enzyme inhibition (%)=100×{(Cont(e)−BL(e))−(Comp(e)−BL(e))/(Cont(e)−BL(e))}
Cont (e): Decomposition rate of substrate (mOD/min) when enzyme solution and substrate solution were added to physiological saline containing 5% dimethyl sulfoxide
Comp (e): Decomposition rate of substrate (mOD/min) when enzyme solution and substrate solution were added to physiological saline containing 5% dimethyl sulfoxide and the compound of the present invention
The inhibitory activity on human blood coagulation factor XIa (Haematologic Technologies Inc.) was measured by using the enzyme solution adjusted to 0.1 U/mL by a buffer solution containing 300 mM of NaCl, 10 mM of KCl, 2 mg/mL of PEG 6000 and 100 mM of HEPES-NaOH (pH 7.4) as well as S-2366 (pyroglu-Pro-Arg-pNA, CHROMOGENIX) adjusted to 1 mM by distilled water.

[2] = Pharmacokinetic (PK) tests in rats; type: in vivo
Protocol: The compound of the present invention was administered to fasted male Crj:CD(SD) rats by intravenous injection as a single intravenous dose of 0.1 mg/kg (vehicle: 20% HP-β-CD solution) and by forced oral dosage as a dose of 1 mg/kg per os (vehicle: 0.5% methylcellulose solution). Blood samples were collected from cervical vein into heparinized syringes at 0.08, 0.25, 0.5, 1, 3 or 7 hours after administration by intravenous injection or 0.08, 0.25, 0.5, 1, 2, 4, 6, 8 or 24 hours after oral administration. Plasma was obtained by centrifugation, and plasma was stored at −20° C. until measurement of plasma concentration.
In order to measure the plasma concentration of the compound of the present invention, the plasma sample was subjected to deproteinization by using acetonitrile, was filtrated by using a filter, and thereafter, was diluted with purified water, and then was analyzed by LC/MS/MS. A column for analysis (Shim-pack XR-ODSII, 2.0 mm×75 mm, 2.2 μm) and mobile phases (0.1% formic acid in water and 0.1% formic acid in acetonitrile, flow rate: 0.5 mL/min) were used. The system was used by detection of cations in the Multiple Reaction Monitoring (MRM) mode.
The area under the blood concentration versus time curve (AUC) and the bioavailability (BA) of the compound of the present invention were calculated. In addition, as indices of the maintaining time of the anticoagulation activity in the case of oral administration, AUC/APTT×2, which is obtained by dividing AUC by APTT×2, and C8h/APTT×2, which is obtained by dividing C8h (the plasma concentration at 8 hours after administration) by APTT×2, were calculated.
In addition, the period of time when the compound concentration in plasma of the compound of the present invention exceeded APTT×2 (the APTT×2 maintaining time) was calculated from the change in the compound concentration in plasma in the case when the compound of the present invention was orally administered at a dose of 1 mg/kg. The longer the APTT×2 maintaining time is, the longer the period of time is when the anticoagulation activity is maintained after oral administration.

## N#Cc1cn(-c2ccc(Cl)cc2-c2cc3n(c(=O)c2)[C@H](c2nc(F)c(-c4ccc(N)cc4)[nH]2)CC3)nn1 [Example 4 (10), 1-(2-{(3S)-3-[5-(4-aminophenyl)-4-fluoro-1H-imidazol-2-yl]-5-oxo-1,2,3,5-tetrahydro-7-indolizinyl}-4-chlorophenyl)-1H-1,2,3-triazole-4-carbonitrile]
Standard human plasma
  APTT ×: 1.8 µM
[1]
  IC50: 5.4 nM
[2]; male, Crj:CD(SD), rat, plasma, oral, rats, 1 mg/kg per os, 8 hours after administration, read-out: Plasma concentration C8h
  concentration at 8 h: 2500 nM
[2]; rat, plasma, po, fasted male Crj:CD(SD) rats, 1 mg/kg per os
  AUC: 45 µM·h
[2]; rats, 1 mg/kg orally, period when plasma concentration exceeded APTT×2
  APTT × 2 maintaining time: >8 h
[2]; rats, 1 mg/kg per os, C8h divided by APTT×2
  C8h/APTT × 2: 1.4

— US10815233B2, “Dihydroindolizinone derivative” (ONO PHARMACEUTICAL CO., LTD., priority 2014, dated 2020)
